US10765638B2, “Particle formulation with polycation complex” (Yale University, priority 2017, dated 2020)

Tests used:
SKMG3 cells [1] = assay: Radiation clonogenic survival assay; assay type: cell-based, human
Procedure: Radiation (XRT) doses of either 0, 2, 4, or 6 Gy were delivered with a Precision X-ray 320-kV orthovoltage unit at a dose rate of 2 Gy/45 seconds (PXI X-Ray Systems). Twenty-four hours following XRT cells were washed, trypsinized, and re-plated in triplicate wells to determine clonogenic survival. […] Growth rates were determined by CellTiter 96 Non-Radioactive Cell Proliferation Assay (Promega; Madison, Wis., USA) according to the manufacturer's directions. For each experiment one thousand cells were seeded in triplicate wells in 96-wells plates. The following day, cell cultures were treated with NGI-1 (1 μM), Temozolomide (TMZ, 10 μM), Etoposide (VP-16, 0.1 μM) or combinations for 5 days. Absorbance at 540 nm was measured using the spectrophotometric reading (BioTek Synergy 2; Winooski, Vt. USA).

SKMG3 cells [2] = assay: Cell cycle distribution by flow cytometry; assay type: cell-based, human
Procedure: (§1) Cell cycle distribution was determined following treatment with vehicle, radiation and/or 10 uM NGI-1. Cells were trypsinized and centrifuged, washed once with ice-cold PBS, fixed with ice-cold 70% ethanol and stored overnight at −20° C. After washing twice with PBS, they were incubated for 30 minutes at room temperature in 200 μL of Guava Cell Cycle Reagent (Guava Technologies). Cytofluorometric acquisitions were performed on a LSRII cytometer (BD Biosciences). First-line analysis was performed with FlowJo software, upon gating of the events characterized by normal forward and side scatter parameters and discrimination of doublets in a FSC-A vs. FSC-H bivariate plot. Approximately 50,000 cells were analyzed per experiment.

FGFR1 dependent H1580 = details: Lopez-Sambrooks et al., Nat Chem Biol. 2016; cited from earlier work
[3] = tested on: HCC827 and HCC827-GR cells; assay: MTT proliferation assay; assay type: cell-based; details: both parental and HCC827-GR cells; 10 μM NGI-1, 5 days
Procedure: (§2) The H1975 and A549 cell lines were purchased from ATCC (Manassas, Va.), the PC9 cell line was a gift from Katie Politi, and the HCC-827 and HCC-827-GR lines were gifts from Jeff Engelman (MGH, Boston Mass.). Cell lines were cultured in RPMI 1640+10% FBS supplemented with penicillin and streptomycin (Gibco, Life Technologies, Grand Island, N.Y., US) in a humidified incubator with 5% CO2, and they were kept in culture no more than 4 months after resuscitation from the original stocks. No additional authentication was performed. Mycoplasma cell culture contamination was routinely checked and ruled out using the MycoAlert Mycoplasma Detection Kit (Lonza, Rockland, Me. USA). To generate a TKI resistant cell lines, either PC9 or H1975 cells were exposed to increasing concentrations of gefitinib or osimertinib, respectively. Gefitinib or Osimertinib concentrations were increased stepwise when cells resumed growth kinetics similar to the untreated parental cells over a dose range from 10 to 500 nM. Resistant cell cultures were obtained ˜8-12 weeks after initiation of drug exposure. To confirm the emergence of a therapeutic resistant, MTT assays were performed after allowing the cells to grow in drug-free conditions for at least 4 days.
(§3) Growth rates were determined by CellTiter 96 NonRadioactive Cell Proliferation Assay (Promega; Madison, Wis., USA) according to the manufacturer's directions. Briefly, NSCLC cells (2×103) untreated or treated with 10 μM NGI-1, 100 nM Gefitinib, or 1 μM Osimertinib (Selleck Chemicals), were seeded in triplicate in 96-wells plates and grown in culture medium containing 10% serum. The media was changed with or without new inhibitor every 48 h. Cell numbers were estimated after 0, 3, and 5 days by adding MTT (3-(4,5-dimethylthiazol-2-yl)-2,5-diphenyltetrazolium bromide) reagent to the wells 4 h before taking the spectrophotometric reading (absorbance at 570 nm).

H1975 and H1975-OR cells = assay: MTT proliferation assay; assay type: cell-based; details: both parental and H1975-OR cell lines; 10 μM NGI-1, 5 days
Procedure: as §2, §3

PC9 and PC9-GR cells = assay: MTT proliferation assay; assay type: cell-based; details: both parental and T790M expressing PC9 cell lines; 10 μM NGI-1, 5 days
Procedure: as §2, §3

parental PC9 cells = assay: Apoptosis by Annexin V flow cytometry; assay type: cell-based; details: NGI-1 10 μM, 48 h
Procedure: (§4) Briefly, 1×10^6 cells/sample were collected, washed in PBS, pelleted, and resuspended in incubation buffer (10 mm HEPES/NaOH, pH 7.4, 140 mm NaCl, 2.5 mm CaCl2) containing 1% annexin V and 1% 7-Amino-actinomycin D or propidium iodide, to identify dead cells. […] First-line analysis was performed with Flow Jo software. Approximately 50,000 cells were analyzed per experiment, and the mean value was obtained from 3 independent assays.

PC9-GR cells = assay: Apoptosis by Annexin V flow cytometry; assay type: cell-based; details: NGI-1 treatment alone
Procedure: as §4

T98G cells = assay: Cell cycle distribution by flow cytometry; assay type: cell-based
Procedure: as §1

D54 cells = assay: Cell cycle distribution by flow cytometry; assay type: cell-based
Procedure: as §1

U251 cells = assay: Cell cycle distribution by flow cytometry; assay type: cell-based
Procedure: as §1

## Cc1cnc(NC(=O)c2cc(S(=O)(=O)N(C)C)ccc2N2CCCC2)s1 [NGI-1, 5-(dimethylsulfamoyl)-N-(5-methyl-1,3-thiazol-2-yl)-2-(pyrrolidin-1-yl)benzamide]
SKMG3 cells [1]; 10 μM NGI-1
  dose enhancement factor (DEF) at a surviving fraction of 0.4: 1.2
SKMG3 cells [1]; 10 μM NGI-1 48 hours before radiation, 87% without NGI-1
  survival fraction at 2 Gy (SF2Gy): 77%
SKMG3 cells [2]; SKMG3, 48 hours of 10 uM NGI-1, control 69%
  cells in G1 (G1 arrest): 78%
SKMG3 cells [2]; SKMG-3, NGI-1 + 4 Gy, 56% without NGI-1
  cells in G1 six hours after 4 Gy: 72%
FGFR1 dependent H1580
  sensitivity to OST inhibition with NGI-1: sensitive
[3]
  reduction of proliferation: 80%
H1975 and H1975-OR cells
  reduction of proliferation: more than 70%
PC9 and PC9-GR cells
  reduction of proliferation: ~90%
Parental PC9 cells
  induction of apoptosis: does not induce apoptosis
PC9-GR cells
  induction of apoptosis: no pro-apoptotic effect
T98G cells; 48 hours of NGI-1
  G1 arrest: no arrest
T98G cells; NGI-1 + 4 Gy
  G1 arrest six hours after 4 Gy: not for either the T98G or U251 cells
D54 cells; 48 hours of 10 uM NGI-1, control 75%
  cells in G1 (G1 arrest): 83%
D54 cells; NGI-1 + 4 Gy, 66% without NGI-1
  cells in G1 six hours after 4 Gy: 77%
U251 cells; 48 hours of 10 uM NGI-1, printed 64% vs. 72%
  cells in G1 (G1 arrest): 64%
U251 cells; NGI-1 + 4 Gy
  G1 arrest six hours after 4 Gy: not for either the T98G or U251 cells
